Values quoted from earlier work as cited in US20180296814A1, “ADMINISTRATION OF DRUGS TO A PATIENT” (Progenity, Inc., priority 2010, published 2018).

Conditions: regional absorption in the intestinal tract, rats

Substance: salmon calcitonin
- location of maximum absorption: ileum
